Results reported in patent publication US8158560B2, “Insecticidal arylpyrroline compounds” (Bayer CropScience AG, priority 2009, dated 2012).

How the values were obtained:
Type in all cases: in vivo
[1] = test system: Myzus persicae-resistant strain, mixed population; experiment: Myzus persicae spray test (MYZUPE); conditions: 4 ppm, 6 dat, rating scheme
Protocol: Myzus persicae—Spray Test (MYZUPE)
Insect: Myzus persicae-resistant strain, mixed population
Plant: Eggplant seedling (Solanum melongena var. Senryo 2gou) 2 leaf age (4-5 weeks after sowing), transplanted into vinyl pots of 60 mm diameter
Solvent pre-mixture: Sorpol® SD: Sorpol® BDB:Dimethylformamide=3:3:14; 10 mg a.i. is solved with 0.05 ml solvent pre-mixture. Water for dilution contains RME and AS (1000 ppm each) or 0.1% of spreader. Solutions are diluted at the rate of 1:5 for limit concentration determination.
Procedure: 1 day before treatment aphids are inoculated onto the testing plants, about 50 aphids per leaf, 100 for 1 pot. A paper label is placed on each pot. Solutions are sprayed directly onto both insects and plants. After drying pots are placed in the greenhouse at 20° C.-25° C. and 50-60% relative humidity.
After the specified period of time the mortality in % is determined and the rate of death is calculated according to the following scheme/criteria: […]

[2] = test system: Bemisia tabacii biotype B; experiment: Bemisia tabacii spray test (BEMIAR); conditions: 100 ppm, 14 dat, rating scheme b324
Protocol: Bemisia tabacii—Spray-Test (BEMIAR)
Insect: Bemisia tabacii biotype B
Plant: Tomato seedlings, 5 leaf stage in vinyl pots of 40 mm diameter
(§1) Solvent pre-mixture: Sorpol® SD: Sorpol® BDB:Dimethylformamide=3:3:14
10 mg a.i. is solved with 0.05 ml solvent pre-mixture. Water for dilution contains RME and AS (1000 ppm each) or 0.1% of spreader. Solutions are diluted at the rate of 1:5 for limit concentration determination.
Procedure: Solutions are sprayed to the plants. After drying treated pots are placed in the greenhouse where breeding BEMIAR for an infection-time of 24 h. Then the plants is placed in the testing room at 25° C. and 50-60% r.h., 16L8D lighting conditions.
(§2) After the specified period of time mortality in % is determined according to the following scheme/criteria: […]

Panonychus citri = Panonychus citri spray test (METTCI); conditions: 4 ppm, 7 dat, rating scheme b306
Protocol: Panonychus citri—Spray Test (METTCI)
Plant: Citrus plants, ca 8 cm height
as §1
(§3) 10 mg a i. is solved with 0.05 ml solvent pre-mixture.
(§4) Water for dilution contains RME and AS (1000 ppm each) or 0.1% of spreader. Solutions are diluted at the rate of 1:5 for limit concentration determination.
Procedure: 1 day before treatment mites were inoculated onto potted citrus plants, about 50 adults and some nymphs for 1 pot. The test solution is sprayed directly onto both mites and plants. After drying pots are stored at 25° C.
After the specified period of time mortality in % is determined by rating according to the following scheme/criteria.

[3] = test system: Nephotettix cincticeps-MR, resistant strain, 3rd-4th instar nymphs; experiment: Nephotettix cincticeps spray test (NEPHCI); conditions: 7 dat
Protocol: Nephotettix cincticeps-Spray Test (NEPHCl)
Insect: Nephotettix cincticeps-MR, resistant strain, 3rd-4th instar nymphs from own culture
Plant: Rice seedlings (Oryza sativa var. Tamanishiki)
Material: ST-method container (200 ml desiccant polystyrene bottle) with a hole in the bottom sealed with metal mesh. The lid has a pit inside to keep desiccant, and it is used to sow rice seeds. The bottle is used upside down as “cover”, the lid with seedling is called “base”. Plastic stand-board with magnet labels to line the ST Bases up (“Stand”)
Solvent pre-mixture: Sorpol® SD: Sorpol® BDB:Dimethylformamide=3:3:14 10 mg a i. is solved with 0.05 ml solvent pre-mixture. Water for dilution contains RME and AS (1000 ppm each) or 0.1% of spreader. Solutions are diluted at the rate of 1:5 for limit concentration determination.
Procedure: On a pit in the center of a base (originally the desiccant space) pieces of paper towel are placed. 20-30 germinated rice seeds are sown on the paper and moistened with water. The base is covered with a plastic cup and kept in an incubator at 30° C. for five days.
The base with rice seedlings is placed on the Stand. Each base is sprayed with the solution.
After drying twelve 3rd-4th instar nymphs of Nephotettix cincticeps-MR are put on the base and confined with the cover. The ST containers on the Stands are kept in the testing room at 25° C. and 50-60% r.h., 16L8D lighting conditions.
After the specified period of time mortality in % is determined by rating according to the following scheme/criteria: Counting living moving insects, calculate mortality in % by the formula: […]

[4] = test system: Aulacophora femoralis 2nd instar larvae; experiment: Aulacophora femoralis spray test (AUACFE); conditions: 0.8 ppm, 6 dat, rating scheme b297
Protocol: Aulacophora femoralis—Spray Test (AUACFE)
Insect: Aulacophora femoralis 2nd instar larvae from own culture;
Material: PET cups with 5 ml soil and A-PET lids
Plant: Cucumber (Cucumis sativus var. Hanshiro), cotyledon stage; 1 plant per pot;
Solvent pre-mixture: Sorpol® SD: Sorpol® BDB:Dimethylformamide=3:3:14;
10 mg a.i. solved with 0.05 ml solvent pre-mixture. Water for dilution contains RME and AS (1000 ppm each) or 0.1% of spreader. Solutions are diluted at the rate of 1:5 for limit concentration determination.
Procedure: Solutions are sprayed onto a plant. After drying, plants are cut and put on the soil in the testing cup. Five larvae L2 are released into each testing cup.
The testing cup is covered with the lid and stored at 25° C. and 50-60% r.h., 16L8D lighting conditions.
After the specified period of time, the mortality in % is determined according to the following scheme/criteria: […]

Tetranychus urticae = experiment: Biological Test Example 2: test against two-spotted spider mite (Tetranychus urticae), spray on kidney bean; conditions: 168 h, active compound concentration 100 ppm, adult mites, after 7 days, read-out: acaricidal activity
Protocol: (§5) Unless not mentioned otherwise, the test solutions were prepared as follows:
(§6) Containing as solvent: Dimethylformamide, 3 parts by weight; and as emulsifier: Polyoxyethylene alkyl phenyl ether, 1 part by weight
(§7) To prepare the test solution, 1 part by weight of an active compound is mixed with the above-mentioned amount of solvent containing the above-mentioned amount of emulsifier, and the mixture is diluted with water to the desired concentration.
Test Against Two-Spotted Spider Mite (Tetranvchus urticae)
50 to 100 adult mites of Tetranychus urticae were inoculated to leaves of kidney bean at two-leaf stage planted in a pot of 6 cm in diameter. After one day, test solution at the appropriate concentration was sprayed thereon in a sufficient amount using a spray gun. After the spraying, the plant pot was placed inside a greenhouse, and after 7 days, the acaricidal activity was calculated. An acaricidal activity of 100% means that all mites were killed, whereas an acaricidal activity of 0% means that no mite was killed.

Aulacophora femoralis = experiment: Biological Test Example 3: test against cucurbit leaf beetle (Aulacophora femoralis), cucumber leaf dip; conditions: foliar, 168 h, active compound concentration 100 ppm, second instar larvae, after 7 days, read-out: insecticidal activity
Protocol: as §5, §6, §7
Test Against Cucurbit Leaf Beetle (Aulacophora femoralis)
Leaves of cucumber were immersed in the test solution at the appropriate concentration, and the leaves were dried in air. The leaves were then put in a plastic cup containing sterilized black soil and five Aulacophora femoralis at second instar larvae were released in the cup. The cups were placed in a temperature-controlled chamber at 25° C. After 7 days, the number of dead larvae was counted, and the insecticidal activity was calculated. An insecticidal activity of 100% means that all larvae were killed, whereas an insecticidal activity of 0% means that no larva was killed.

[5] = test system: Plutella xylostella 3rd instar larvae; experiment: Plutella xylostella spray test (PLUTXY); conditions: PLUTMA; 0.8 ppm; 7 dat
Protocol: Plutella xylostella—Spray Test (PLUTXY)
Insect: Plutella xylostella 3rd instar larvae from own culture
Material: A-PET cup, A-PET lids
Plant: Broccoli 5 leaf stage
as §1
10 mg a i. is solved with 0.05 ml solvent pre-mixture
as §4
Procedure: Broccoli seedlings of 4-5 leaf stage planted in a vinyl pot (9 cm diameter) are sprayed with the solution. After drying half of the leaves of the plants are cut and put into a A-PET cup. Ten larvae of Plutella xylostella L3 are released in the cup and the dish is placed at 25° C. After 4 days another half leaf is cut and added to the dish. After the specified period of time mortality in % is determined according to the figures of mortality used for evaluation. • 1 larva dead: 20% Efficacy • 5 larvae dead: 100% Efficacy Adoxophyes honmai—Test (ADXPFA)

Spodoptera litura = experiment: Biological Test Example 1: test against tobacco cutworm (Spodoptera litura) larvae, sweet potato leaf dip; conditions: foliar, 168 h, active compound concentration 100 ppm, third instar larvae, after 7 days, read-out: insecticidal activity
Protocol: as §5, §6, §7
Test Against Tobacco Cutworm (Spodoptera litura) Larvae
Leaves of sweet potato were immersed in the test solution at the appropriate concentration, and the leaves were dried in air. The leaves were then placed in a petri dish having a diameter of 9 cm, and ten Spodoptera litura at third instar larvae were released therein. The petri dishes were placed in a temperature-controlled chamber at 25° C.
After 2 days and 4 days more sweet potato leaves were added. After 7 days, the number of dead larvae was counted and the insecticidal activity was calculated. An insecticidal activity of 100% means that all larvae were killed, whereas an insecticidal activity of 0% means that no larva was killed. In the current test, the results of two petri dishes for each treatment were averaged.

[6] = test system: organic phosphorus agent- and carbamate agent-resistant Myzus persicae; experiment: Biological Test Example 4: test against organic phosphorus agent- and carbamate agent-resistant green peach aphid (Myzus persicae), spray on eggplant; conditions: active compound concentration 100 ppm; after 7 days
Protocol: as §5, §6, §7
Test Against Organic Phosphorus Agent- and Carbamate Agent Resistant Green Peach Aphid (Myzus persicae)
50 to 100 head of organic phosphorous agent- and carbamate agent-resistant Myzus persicae were inoculated to leaves of eggplant at two-leaf stage, planted in a pot of 6 cm in diameter. After one day, test solution at the appropriate concentration was sprayed thereon in a sufficient amount using a spray gun. After the spraying, the plant pot was placed inside a greenhouse, and after 7 days, the insecticidal rate was calculated.
An insecticidal activity of 100% means that all aphids were killed, whereas an insecticidal activity of 0% means that no aphid was killed.

[7] = test system: Spodoptera litura L2 stage; experiment: Spodoptera litura root soaking test (PRODLI); conditions: 20 ppm, 4 dat
Protocol: Spodoptera litura—Root Soaking Test (PRODLI)
Insect: Spodoptera litura L2 stage;
Material: Culture media bottles for hydroponics: Plastic (A-PET) cups for test, square type;
Plant: Broccoli 5 leaf stage (ca. 12 cm high), soil around the roots was washed off just before the test;
Solvent pre-mixture “Sorpol SD” for root soaking test;
Sorpol SD: Sorpol BDB:Dimethylformamide=3:3:140
Procedure: Test solutions are prepared in the bottles at the appropriate concentration. The test plant root is dipped into the test solution in the bottle and kept in a test room. After 3 days, ⅓ part of the leaves of the plants is cut and put into the A-PET cup.
Into each test cup five larvae L2 are released, the cup is covered with a lid and stored at 25° C. and at a relative humidity of 50-60% and under 16L8D lighting conditions.
After the specified period of time the mortality in % is determined and the rate of death is calculated.

[8] = test system: Tetranychus urticae-S (sensible strain) mixed population; experiment: Tetranychus urticae test (TETRUR); conditions: 0.16 ppm, 2 dat, rating scheme b334
Protocol: Tetranychus urticae—Test (TETRUR)
Insect: Tetranychus urticae-S (sensible strain) mixed population from own culture
Plant: Kidney bean seedlings (Phaseolus vulgaris var. Serena), 2 leaf stage (1 week after sowing)
as §1, §3, §4
Procedure: 1 day before treatment the apex parts of testing plants are pruned. Mites are inoculated onto the testing plants, about 20 adults per leaf, 40 adults and some nymphs for 1 pot. A paper label is placed on each pot. The solution is sprayed onto mites and plants. After drying pots are placed in the greenhouse, temperature 20° C.-25° C.
as §2

Cc1cc(C2=NOC(c3cc(C(F)(F)F)cc(C(F)(F)F)c3)(C(F)(F)F)C2)ccc1C(=O)NC1CSC1 (stereo not drawn) [ExNo A21 of WO 2009/080250, reference compound]
Efficacy/day(s) of treatment [1]: 60%/6 dat
Efficacy/day(s) of treatment [2]: 60%/14 dat
Efficacy/day(s) of treatment (Panonychus citri): 0%/7 dat
Efficacy/day(s) of treatment ([3]; 20 ppm): 0%/7 dat
Efficacy/day(s) of treatment [4]: 50%/6 dat

Cc1cc(C2=NCC(c3cc(C(F)(F)F)cc(C(F)(F)F)c3)(C(F)(F)F)C2)ccc1C(=O)NC1CS(=O)(=O)C1 (stereo not drawn) [Compound 1-21, 4-{3-[3,5-Bis(trifluoromethyl)phenyl]-3-(trifluoromethyl)-3,4-dihydro-2H-pyrrol-5-yl}-N-(1,1-dioxidothietan-3-yl)-2-methylbenzamide]
pest or weed control at 100 ppm (Tetranychus urticae): 100%
Efficacy/day(s) of treatment [1]: 98%/6 dat
pest or weed control at 100 ppm (Aulacophora femoralis): 100%
Efficacy/day(s) of treatment [5]: 100%/7 dat
Efficacy/day(s) of treatment [2]: 98%/14 dat
pest or weed control at 100 ppm (Spodoptera litura): 100%
Efficacy/day(s) of treatment ([3]; 100 ppm): 90%/7 dat
insecticidal activity [6]: 100%

Cc1cc(C2=NOC(c3cc(Cl)cc(Cl)c3)(C(F)(F)F)C2)ccc1C(=O)NC1CSC1 (stereo not drawn) [ExNo A-4 of WO 2009/080250]
Efficacy/day(s) of treatment [7]: 80%/4 dat
Efficacy/day(s) of treatment [8]: 60%/2 dat

Cc1cc(C2=NCC(c3cc(Cl)cc(Cl)c3)(C(F)(F)F)C2)ccc1C(=O)NC1CSC1 (stereo not drawn) [ExNo A49 of WO 2010/020522]
Efficacy/day(s) of treatment [7]: 100%/4 dat
Efficacy/day(s) of treatment [8]: 90%/2 dat

Cc1cc(C2=NOC(c3cc(C(F)(F)F)cc(C(F)(F)F)c3)(C(F)(F)F)C2)ccc1C(=O)NC1CS(=O)(=O)C1 (stereo not drawn) [Compound C-1, reference compound]
Efficacy/day(s) of treatment [1]: 60%/6 dat
Efficacy/day(s) of treatment [5]: 80%/7 dat
Efficacy/day(s) of treatment [2]: 60%/14 dat
Efficacy/day(s) of treatment ([3]; 100 ppm): 70%/7 dat
